The values that follow are results of earlier work, collected in patent US7915306B2, “Macrocyclic compounds useful as pharmaceuticals” (Eisai Co., Ltd., priority 2002, dated 2011).

Read-outs that look alike come from different tables or passages of the source.

The conditions of series [1]: human plasma.
For series [2] the following is noted: mouse plasma.

As to `COc1cc(O)c2c(c1)/C=C/C[C@H](O)[C@H](O)C(=O)/C=C\C[C@H](C)OC2=O` [F152], the “biological stability (enone isomerization)” value in series [1] and in series [2] was “susceptible to enone isomerization” throughout. In the series on Map/Erk kinase (MEK), the “inhibition of Map/Erk kinase (MEK)” value was “inhibit”.
